Measurements taken from patent publication EP1657232A1, “Use of S-enantiomers of alpha-sustituted aryl acetic acids for the prevention of Alzheimer's disease” (CELLZOME AG, priority 2004, dated 2006).

Target: T1, cyclooxygenase-1 (Cox-1) (Ovis aries, UniProt P05979)
T1 construct: purchased Cayman Chemical Company 760111
T1 sequence (P05979 25-600): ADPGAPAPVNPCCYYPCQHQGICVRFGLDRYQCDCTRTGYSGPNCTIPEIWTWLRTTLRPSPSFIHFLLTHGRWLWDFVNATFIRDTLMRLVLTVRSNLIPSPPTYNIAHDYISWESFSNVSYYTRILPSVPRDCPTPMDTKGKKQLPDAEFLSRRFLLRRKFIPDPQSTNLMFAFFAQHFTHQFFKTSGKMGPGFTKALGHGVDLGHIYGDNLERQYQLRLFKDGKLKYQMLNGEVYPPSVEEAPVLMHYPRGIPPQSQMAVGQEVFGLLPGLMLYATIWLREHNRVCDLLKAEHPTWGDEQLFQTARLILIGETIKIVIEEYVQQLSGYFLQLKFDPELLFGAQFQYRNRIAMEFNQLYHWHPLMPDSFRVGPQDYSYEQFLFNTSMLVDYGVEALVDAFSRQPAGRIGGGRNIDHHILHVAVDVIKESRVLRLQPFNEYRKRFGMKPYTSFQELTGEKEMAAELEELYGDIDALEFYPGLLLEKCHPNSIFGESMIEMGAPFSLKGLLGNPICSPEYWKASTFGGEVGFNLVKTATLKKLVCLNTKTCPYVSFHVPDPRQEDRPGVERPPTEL
Assay: Colorimetric Cox inhibitor screening assay (Cayman Chemical, Cat. No. 760111)
Assay type: biochemical
Method: Inhibition of Cox-1 is determined using the Colorimetric Cox inhibitor screening assay provided by Cayman Chemical Company, Ann Arbor, MI, USA. (Cat. No. 760111) according to manufacturer's instructions.

- inhibitory effect against Cox-1 activity: no inhibitory effect
SMILES: CC(C)[C@H](C(=O)O)c1ccc(-c2cccc(C(F)(F)F)c2)cc1 [title compound of example 1, 2(S)-(3'-trifluoromethyl-biphenyl-4-yl)-3-methyl-butanoic acid]
